This is an account of results in patent publication US6531156B1, “Aqueous solven encapsulation method, apparatus and microcapsules” (Temple University, priority 1994, dated 2003).

A short description of data set [1]: pH response and retention of bromphenol blue in octadecylamine carboxymethylcellulose microcapsules. Particulars: for colour of microcapsules in acid medium: rehydrated and wet stored microcapsules. It counts as physicochemical. The method, then: Step 1: A 100 milligram sample of bromphenol blue (Fisher Scientific Co.) was dissolved in 25 milliliters of a 0.1% solution of sodium carboxymethylcellulose (medium viscosity, Ruger Chemical Co.) and the resulting solution was slowly pumped (approximately 1 milliliter per minute) through a capillary drawn to a fine tip (0.1 millimeter o.d.). The emerging droplets were allowed to fall a distance of about 1 centimeter into a slowly stirred 0.1% aqueous solution of octadecylamine (Aldrich Chemical Co.) solubilized as the acetate at pH 7.0.
Step 2: The resulting approximately 1.5 millimeter diameter microcapsules were stirred for an additional hour and separated with the aid of fine netting. The microcapsules were washed with two 100 milliliter volumes of water. About half the microcapsules were stored wet and refrigerated until used. The other half of the microcapsules were lyophilized and stored dry until used.
Step 3: A few dozen of the lyophilized microcapsules were rehydrated in a few milliliters of water for an hour and were used in parallel with the wet stored microcapsules to test their sensitivity to pH. Dilutions of hydrochloric acid were made to provide solutions with pH values of 2, 3, and 4. To these hydrochloric acid solutions, a few rehydrated and a few wet stored microcapsules were added one at a time.

In data set [2] the test system is bovine rotavirus strain WC3. Particulars: WC3 stock diluted 1:50 in 0.05N sodium salt of polymer or 0.05M amine salt, pH 7.0, versus 0.9% NaCl.
The conditions of data set [3]: spermine alginate microcapsules, 5 water washes, absorbance after dissolving microcapsules with sodium chloride.

Read-outs that look alike come from different tables or passages of the source.

On to `O=S1(=O)OC(c2cc(Br)c(O)c(Br)c2)(c2cc(Br)c(O)c(Br)c2)c2ccccc21` [bromphenol blue], for which the “diffusion of encapsulated indicator out of the microcapsule” value in data set [1] (octadecylamine carboxymethylcellulose microcapsules, rehydrated and wet stored) is “did not diffuse out of it”. Moreover, the “colour of microcapsules in acid medium” value in data set [1] (pH 3 solution) is “changed to yellow within a few minutes”; in data set [1] (pH 4 medium) it was “remained blue”. For `CCCCCCCCCCCCN` [dodecylamine], the “reduction in rotavirus infectivity” value in data set [2] is on record as “complete ablation”. For the compound `O=c1[nH]cc(F)c(=O)[nH]1` [fluorouracil, Fluorouracil], in data set [3], the “initial amount of core material retained in the microcapsules during the repeated washings” value is reported as “more than half”. For `CN(C)c1ccc2nc3ccc(=[N+](C)C)cc-3sc2c1` [methylene blue], in data set [2], the “reduction in rotavirus infectivity” value was “Essentially no effect”. `C1CNCCN1` [piperazine]: in data set [2], the “reduction in rotavirus infectivity” value is 30 fold. For `NCCCNCCCCNCCCN` [spermine], the “reduction in rotavirus infectivity” value in data set [2] was “Essentially no effect”; in data set [2] (listed as spermine hydrochloride), “neither sodium alginate nor spermine hydrochloride reduced rotavirus infectivity”.
